Values of other authors as cited in patent US20130146496A1, “SOLID PHARMACEUTICAL FORMULATIONS OF RAMIPRIL AND AMLODIPINE BESYLATE, AND THEIR PREPARATION” (priority 2010, published 2013).

Legend:
[1] = in vivo

CCOC(=O)C1=C(COCCN)NC(C)=C(C(=O)OC)C1c1ccccc1Cl (racemic) [Amlodipine besylate, 3-ethyl-5-methyl-(+-)-2-[(2-aminoethoxy)methyl]-4-(2-chlorophenyl)-1,4-dihydro-6-methylpyridine-3,5-dicarboxylate]
absolute bioavailability [1]: 64-90%
solubility in water: slightly soluble
